The source of these data is US4259336A, “4-Hydroxy-2H-[1]-benzothieno [2,3-e]-1,2-thiazine-3-carboxamide-1,1-dioxides and salts thereof” (Boehringer Ingelheim GmbH, priority 1978, dated 1981).

Data set [1] relates to thrombocyte aggregation in platelet-rich plasma of healthy test persons (collagen). In words: Inhibition of blood-platelet aggregation (Born test), collagen-induced, platelet-rich plasma. The format is cell-based, healthy test persons (human). The conditions noted are these: Homo sapiens, read-out: Percentage change in light permeability of plasma (Born test); for inhibition at 1 µM: 10^-6 mol/liter; for inhibition at 20 µM: 2.10^-5 mol/liter; for inhibition at 2 µM: 2.10^-6 mol/liter; for inhibition at 0.2 µM: 2.10^-7 mol/liter. On the procedure: The decrease in the optical density of platelet suspensions was measured photometrically and recorded after the addition of collagen. From the angle of inclination of the density curve the velocity of aggregation was estimated. The optical density was taken as the point on the curve where the most light was transmitted. The doses of collagen were chosen so as to be sufficient to produce irreversible aggregation. […] Commercial collagen sold by Hormonchemie, Munich, Germany, was used.

Data set [2] concerns the target T1, prostaglandin synthetases (Bos taurus, UniProt O62664).
T1 construct: isolated as a microsomal extract from bovine seminal vesicles; from tissue; host or cells: bovine seminal vesicles (microsomal extract)
T1 sequence (O62664 25-600): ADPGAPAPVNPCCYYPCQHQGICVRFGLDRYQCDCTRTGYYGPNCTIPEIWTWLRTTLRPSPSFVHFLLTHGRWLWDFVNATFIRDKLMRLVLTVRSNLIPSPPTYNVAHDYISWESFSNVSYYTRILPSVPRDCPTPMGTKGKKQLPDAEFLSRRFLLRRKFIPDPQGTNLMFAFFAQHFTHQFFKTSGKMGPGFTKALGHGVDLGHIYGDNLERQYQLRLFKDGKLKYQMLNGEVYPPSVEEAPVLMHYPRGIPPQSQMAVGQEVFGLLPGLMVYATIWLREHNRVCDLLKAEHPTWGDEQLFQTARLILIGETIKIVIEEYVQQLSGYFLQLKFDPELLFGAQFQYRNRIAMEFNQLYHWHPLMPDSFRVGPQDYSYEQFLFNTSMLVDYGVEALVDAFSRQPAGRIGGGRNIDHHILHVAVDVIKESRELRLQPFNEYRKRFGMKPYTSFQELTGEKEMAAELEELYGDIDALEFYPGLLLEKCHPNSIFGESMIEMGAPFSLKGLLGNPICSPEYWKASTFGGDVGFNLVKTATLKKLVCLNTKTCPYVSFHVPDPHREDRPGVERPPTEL
Nature of the data set: Anti-inflammatory activity: inhibition of prostaglandin biosynthesis (prostaglandin synthetases, microsomal extract from bovine seminal vesicles). The format is biochemical. Conditions: 14C-arachidonic acid substrate, read-out: EC50 in mol (50% decrease in the amount of prostaglandins). Here is the method: Therefore, the anti-inflammatory activity was determined as the activity against the prostaglandin synthetases:
^14 C-arachidonic acid served as the substrate. The prostaglandins biosynthetisized therefrom were separated chromatographically from the ^14 C-arachidonic acid, and the remaining substrate and product were measured radiochemically.

Data set [3] is described as follows: Acute toxicity, peroral, rats. The format is in vivo. Conditions: rat, in vivo, po, suspension in 1% methyl-cellulose, observed 24 hours. Here is the method: (§1) The acute toxicity was determined in rats of both sexes (1:1) with a body weight of 120-150 gm. The test compound was perorally administered as a suspension in 1% methyl-cellulose (1 ml/100gm animal) by means of an esophageal sound.

Data set [4] relates to rats. In words: Acute toxicity, peroral, rats. The conditions noted are these: 100 mg/kg p.o., observed 24 hours. The format is in vivo. On the procedure:
as §1

Where [5] appears, read: 10^-5 mol/liter, collagen, =% decrease in aggregation vs control.
Where [6] appears, read: collagen, =% decrease in aggregation vs control.

Each structure is given as a SMILES string. Read-outs that look alike come from different tables or passages of the source.

On to `CN1C(C(=O)Nc2nccs2)=C(O)c2sc3ccccc3c2S1(=O)=O` [A, 4-Hydroxy-2-methyl-N-(2-thiazolyl)-2H-[1] benzothieno-[2,3-e]-1,2-thiazine-3-carboxamide-1,1-dioxide], for which, in data set [1] (setting [5]), the inhibition at 10 µM was 94%. In addition, the inhibition at 1 µM in data set [1] (setting [6]) is 73%. The inhibition at 0.1 µM in data set [1] (10^-7 mol/liter, collagen, =% decrease in aggregation vs control) was 14%. The EC50 (usually the concentration at which the effect is half-maximal) in data set [2] (DMSO 2%) turned out to be 39 nM. The LD50 (as a rule, the dose at which mortality reaches 50%) at 24 h in data set [3] was > 100 mg/kg. Also, the animals died in data set [4] is recorded as 0 out of 10.

For the compound `Cc1cccc(NC(=O)C2=C(O)c3sc4ccccc4c3S(=O)(=O)N2C)n1` [B, 4-Hydroxy-2-methyl-N-(6-methyl-2-pyridyl)-2H-[1] benzothieno [2,3-e]-1,2-thiazine-3-carboxamide-1,1-dioxide], in data set [1] (4.10^-6 mol/liter, collagen, =% decrease in aggregation vs control), the inhibition at 4 µM came to 100%. Moreover, the inhibition at 0.4 µM in data set [1] (4.10^-7 mol/liter, collagen, =% decrease in aggregation vs control) is 71%.

Consider `Cc1csc(NC(=O)C2=C(O)c3sc4ccccc4c3S(=O)(=O)N2C)n1` [C, 4-Hydroxy-2-methyl-N-(4-methyl-2-thiazolyl)-2H-[1] benzothieno [2,3-e]-1,2-thiazine-3-carboxamide-1,1-dioxide], for which the inhibition at 10 µM in data set [1] (setting [5]) worked out at 93%. Further, the inhibition at 1 µM in data set [1] (setting [6]) is 57%. Also, the EC50 in data set [2] (DMSO 2%) turned out to be 21 nM. Moreover, the LD50 at 24 h in data set [3] was > 100 mg/kg. In data set [4], the animals died is 0 out of 10.

`Cc1ccnc(NC(=O)C2=C(O)c3sc4ccccc4c3S(=O)(=O)N2C)c1` [D, 4-Hydroxy-2-methyl-N-(4-methyl-2-pyridyl)-2H-[1]-benzothieno-[2,3-e]-1,2-thiazine-3-carboxamide-1,1-dioxide]: in data set [1] (setting [6]), the inhibition at 20 µM was found to be 88%, the inhibition at 2 µM stood at 60% and the inhibition at 0.2 µM is 19%.

Consider `Cc1ccnc(NC(=O)C2=C(O)c3sc4cc(C)ccc4c3S(=O)(=O)N2C)c1` [E, 2,7-Dimethyl-4-hydroxy-N-(4-methyl-2-pyridyl)-2H-[1]-benzothieno [2,3-e]-1,2-thiazine-3-carboxamide-1,1-dioxide], for which, in data set [1] (setting [6]), the inhibition at 20 µM worked out at 72% and the inhibition at 2 µM was 34%.

Consider `Cc1ccc2c3c(sc2c1)C(O)=C(C(=O)Nc1cccc(C)n1)N(C)S3(=O)=O` [F, 2,7-Dimethyl-4-hydroxy-N-(6-methyl-2-pyridyl)-2H-[1]-benzothieno [2,3-e]-1,2-thiazine-3-carboxamide-1,1-dioxide], for which, in data set [1] (setting [6]), the inhibition at 20 µM turned out to be 90%, the inhibition at 2 µM turned out to be 77% and the inhibition at 0.2 µM is 30%.

Turning to `Cc1ccnc(NC(=O)C2=C(O)c3sc4cc(Cl)ccc4c3S(=O)(=O)N2C)c1` [G, 7-Chloro-4-hydroxy-2-methyl-N-(4-methyl-2-pyridyl)-2H-[1]-benzothieno [2,3-e]-1,2-thiazine-3-carboxamide-1,1-dioxide], in data set [1] (setting [6]), the inhibition at 20 µM stood at 66% and the inhibition at 2 µM is 33%.

In the case of `Cc1cccc(NC(=O)C2=C(O)c3sc4cc(Cl)ccc4c3S(=O)(=O)N2C)n1` [H, 7-Chloro-4-hydroxy-2-methyl-N-(6-methyl-2-pyridyl)-2H-[1] benzothieno [2,3-e]-1,2-thiazine-3-carboxamide-1,1-dioxide], in data set [1] (setting [6]), the inhibition at 20 µM is 89%, the inhibition at 2 µM was found to be 88% and the inhibition at 0.2 µM was determined as 33%.

Take `CN1C(C(=O)Nc2nc3ccccc3s2)=C(O)c2sc3ccccc3c2S1(=O)=O` [I, N-(2-Benzothiazolyl)-4-hydroxy-2-methyl-2H-[1] benzothieno [2,3-e]-1,2-thiazine-3-carboxamide-1,1-dioxide]: the EC50 in data set [2] (DMSO 2%) was determined as 22 nM. The LD50 at 24 h in data set [3] is > 100 mg/kg. For the same compound, in data set [4], the animals died is listed as 0 out of 10.

Turning to `CN1C(C(=O)Nc2ncc(Cl)s2)=C(O)c2sc3ccccc3c2S1(=O)=O` [J, N-(5-Chloro-2-thiazolyl)-4-hydroxy-2-methyl-2H-[1] benzothieno [2,3-e]-1,2-thiazine-3-carboxamide-1,1-dioxide], in data set [2] (DMSO 2%), the EC50 was found to be 47 nM. The LD50 at 24 h in data set [3] is > 100 mg/kg. Moreover, the animals died in data set [4] is given as 0 out of 10.

Turning to `Cc1nc(NC(=O)C2=C(O)c3sc4ccccc4c3S(=O)(=O)N2C)sc1C` [K, N-(4,5-Dimethyl-2-thiazolyl)-4-hydroxy-2-methyl-2H-[1]-benzothieno [2,3-e]-1,2-thiazine-3-carboxamide-1,1-dioxide], the EC50 in data set [2] (DMSO 10%) amounted to 250 nM. Moreover, the LD50 at 24 h in data set [3] was > 100 mg/kg. Also, the animals died in data set [4] was 0 out of 10.

Turning to `CC(=O)Oc1ccccc1C(=O)O` [V, Acetylsalicyclic acid, reference compound], in data set [1], the inhibition at 10 µM amounted to 13% and the inhibition at 30 µM is 45%.

For the compound `CN1C(C(=O)Nc2nccs2)=C(O)c2ccccc2S1(=O)=O` [W, Sudoxicam, reference compound], the EC50 in data set [2] (DMSO 2%) came out at 7000 nM.
